Laboratory results published in ChEMBL document CHEMBL3217615, “Novel 3,5-bis(arylidiene)-4-piperidone based monocarbonyl analogs of curcumin: anticancer activity evaluation and mode of action study” (2014).

Experiments:
Type in all cases: functional
[1] = Growth inhibition of human HCT15 cells assessed as cell growth at 10^-5 M after 48 hrs by sulforhodamine B assay; details: HCT-15, 48 h, read-out: Activity
TK-10 = experiment: Growth inhibition of human TK10 cells assessed as cell growth at 10^-5 M after 48 hrs by sulforhodamine B assay; details: TK-10, 48 h, read-out: Activity
[2] = Growth inhibition of human NCI-ADR-RES cells assessed as cell growth at 10^-5 M after 48 hrs by sulforhodamine B assay; details: read-out: Activity
NCI-H322M = experiment: Growth inhibition of human NCI-H322M cells assessed as cell growth at 10^-5 M after 48 hrs by sulforhodamine B assay; details: read-out: Activity
SF-268 = experiment: Growth inhibition of human SF268 cells assessed as cell growth at 10^-5 M after 48 hrs by sulforhodamine B assay; details: SF-268, 48 h, read-out: Activity
786-0 = experiment: Growth inhibition of human 786-0 cells assessed as cell growth at 10^-5 M after 48 hrs by sulforhodamine B assay; details: 786-0, 48 h, read-out: Activity
SR = experiment: Growth inhibition of human SR cells assessed as cell growth at 10^-5 M after 48 hrs by sulforhodamine B assay; details: read-out: Activity
M14 = experiment: Growth inhibition of human M14 cells assessed as cell growth at 10^-5 M after 48 hrs by sulforhodamine B assay; details: M14, 48 h, read-out: Activity
MDA-MB-231 = experiment: Growth inhibition of human MDA-MB-231 cells assessed as cell growth at 10^-5 M after 48 hrs by sulforhodamine B assay; details: MDA-MB-231, 48 h, read-out: Activity
[3] = Growth inhibition of human OVCAR5 cells assessed as cell growth at 10^-5 M after 48 hrs by sulforhodamine B assay; details: OVCAR-5, 48 h, read-out: Activity
[4] = Growth inhibition of human HOP92 cells assessed as cell growth at 10^-5 M after 48 hrs by sulforhodamine B assay; details: HOP-92, 48 h, read-out: Activity
[5] = Growth inhibition of human HCC2998 cells assessed as cell growth at 10^-5 M after 48 hrs by sulforhodamine B assay; details: HCC 2998, 48 h, read-out: Activity
T47D = experiment: Growth inhibition of human T47D cells assessed as cell growth at 10^-5 M after 48 hrs by sulforhodamine B assay; details: read-out: Activity
[6] = Growth inhibition of human UO31 cells assessed as cell growth at 10^-5 M after 48 hrs by sulforhodamine B assay; details: UO-31, 48 h, read-out: Activity
A549 = experiment: Growth inhibition of human A549/ATCC cells assessed as cell growth at 10^-5 M after 48 hrs by sulforhodamine B assay; details: A549, 48 h, read-out: Activity
NCI-H460 = experiment: Growth inhibition of human NCI-H460 cells assessed as cell growth at 10^-5 M after 48 hrs by sulforhodamine B assay; details: NCI-H460, 48 h, read-out: Activity
CAKI-1 = experiment: Growth inhibition of human CAKI-1 cells assessed as cell growth at 10^-5 M after 48 hrs by sulforhodamine B assay; details: CAKI-1, 48 h, read-out: Activity
HT-29 = experiment: Growth inhibition of human HT-29 cells assessed as cell growth at 10^-5 M after 48 hrs by sulforhodamine B assay; details: HT-29, 48 h, read-out: Activity
MDA-MB-435 = experiment: Growth inhibition of human MDA-MB-435 cells assessed as cell growth at 10^-5 M after 48 hrs by sulforhodamine B assay; details: MDA-MB-435, 48 h, read-out: Activity
MCF7 = experiment: Growth inhibition of human MCF7 cells assessed as cell growth at 10^-5 M after 48 hrs by sulforhodamine B assay; details: MCF7, 48 h, read-out: Activity
HOP-62 = experiment: Growth inhibition of human HOP62 cells assessed as cell growth at 10^-5 M after 48 hrs by sulforhodamine B assay; details: HOP-62, 48 h, read-out: Activity
PC-3 = experiment: Growth inhibition of human PC3 cells assessed as cell growth at 10^-5 M after 48 hrs by sulforhodamine B assay; details: PC-3, 48 h, read-out: Activity
CCRF-CEM = experiment: Growth inhibition of human CCRF-CEM cells assessed as cell growth at 10^-5 M after 48 hrs by sulforhodamine B assay; details: read-out: Activity
MDA-MB-468 = experiment: Growth inhibition of human MDA-MB-468 cells assessed as cell growth at 10^-5 M after 48 hrs by sulforhodamine B assay; details: MDA-MB-468, 48 h, read-out: Activity
ACHN = experiment: Growth inhibition of human ACHN cells assessed as cell growth at 10^-5 M after 48 hrs by sulforhodamine B assay; details: read-out: Activity
A498 = experiment: Growth inhibition of human A498 cells assessed as cell growth at 10^-5 M after 48 hrs by sulforhodamine B assay; details: A498, 48 h, read-out: Activity
K562 = experiment: Growth inhibition of human K562 cells assessed as cell growth at 10^-5 M after 48 hrs by sulforhodamine B assay; details: K562, 48 h, read-out: Activity
SN12C = experiment: Growth inhibition of human SN12C cells assessed as cell growth at 10^-5 M after 48 hrs by sulforhodamine B assay; details: read-out: Activity
[7] = Growth inhibition of human RXF393 cells assessed as cell growth at 10^-5 M after 48 hrs by sulforhodamine B assay; details: RXF 393, 48 h, read-out: Activity
SK-MEL-5 = experiment: Growth inhibition of human SK-MEL-5 cells assessed as cell growth at 10^-5 M after 48 hrs by sulforhodamine B assay; details: SK-MEL-5, 48 h, read-out: Activity
[8] = Growth inhibition of human UACC62 cells assessed as cell growth at 10^-5 M after 48 hrs by sulforhodamine B assay; details: UACC-62, 48 h, read-out: Activity
NCI-H23 = experiment: Growth inhibition of human NCI-H23 cells assessed as cell growth at 10^-5 M after 48 hrs by sulforhodamine B assay; details: NCI-H23, 48 h, read-out: Activity
[9] = Growth inhibition of human OVCAR8 cells assessed as cell growth at 10^-5 M after 48 hrs by sulforhodamine B assay; details: OVCAR-8, 48 h, read-out: Activity
[10] = Growth inhibition of human Hs 578T cells assessed as cell growth at 10^-5 M after 48 hrs by sulforhodamine B assay; details: read-out: Activity
RPMI-8226 = experiment: Growth inhibition of human RPMI8226 cells assessed as cell growth at 10^-5 M after 48 hrs by sulforhodamine B assay; details: RPMI-8226, 48 h, read-out: Activity
NCI-H522 = experiment: Growth inhibition of human NCI-H522 cells assessed as cell growth at 10^-5 M after 48 hrs by sulforhodamine B assay; details: NCI-H522, 48 h, read-out: Activity
[11] = Growth inhibition of human SF539 cells assessed as cell growth at 10^-5 M after 48 hrs by sulforhodamine B assay; details: SF-539, 48 h, read-out: Activity

Row | SMILES | growth at 10 µM [1] | growth at 10 µM [2] | growth at 10 µM (NCI-H322M) | growth at 10 µM (SF-268) | growth at 10 µM (786-0) | growth at 10 µM (SR) | growth at 10 µM (M14) | growth at 10 µM (MDA-MB-231) | growth at 10 µM [3] | growth at 10 µM [4] | growth at 10 µM [5] | growth at 10 µM (T47D) | growth at 10 µM [6] | growth at 10 µM (A549) | growth at 10 µM (NCI-H460) | growth at 10 µM (CAKI-1) | growth at 10 µM (HT-29) | growth at 10 µM (MDA-MB-435) | growth at 10 µM (MCF7) | growth at 10 µM (HOP-62) | other results
1 | Cc1ccc(S(=O)(=O)N2C/C(=C\c3c(Cl)cccc3Cl)C(=O)/C(=C/c3c(Cl)cccc3Cl)C2)cc1 | 80.7% | 90.9% | 93.5% | 83.6% | 93.3% | 71.1% | 79.1% | 64.3% | 103% | 73.5% | 114% | 94% | 72.5% | 77.1% | 83.3% | 61.6% | 83.7% | 93.5% | 64.5% | 94.5% | growth at 10 µM (TK-10): 115%; growth at 10 µM (PC-3): 67.3%; growth at 10 µM (CCRF-CEM): 72.7%; growth at 10 µM (MDA-MB-468): 90.4%; growth at 10 µM (ACHN): 84.2%; growth at 10 µM (A498): 109%; growth at 10 µM (K562): 81.6%; growth at 10 µM (SN12C): 85.6%; growth at 10 µM [7]: 101%; growth at 10 µM (SK-MEL-5): 85%; growth at 10 µM [8]: 69.5%; growth at 10 µM (NCI-H23): 97.7%; growth at 10 µM [9]: 79.6%; growth at 10 µM [10]: 101%; growth at 10 µM (RPMI-8226): 82.9%; growth at 10 µM (NCI-H522): 88.6%; growth at 10 µM [11]: 106%
2 | O=C1/C(=C/c2ccc(Cl)cc2Cl)CN(S(=O)(=O)c2ccccc2)C/C1=C\c1ccc(Cl)cc1Cl | -23% | 20.5% | -29% | 4.96% | -91% | -11.6% | 17% | -52% | -12% | -25% | -83% | 7% | -63% | -43% | -60% | -66.1% | -27.5% | -48% | 12% | -2.25% | growth at 10 µM (PC-3): -25%; growth at 10 µM (CCRF-CEM): -14%; growth at 10 µM (MDA-MB-468): -38%; growth at 10 µM (ACHN): -24%; growth at 10 µM (A498): -27%; growth at 10 µM (K562): 0.79%; growth at 10 µM (SN12C): -47%; growth at 10 µM [7]: -87%; growth at 10 µM (SK-MEL-5): 47%; growth at 10 µM [8]: -79%; growth at 10 µM (NCI-H23): -37.6%; growth at 10 µM [9]: -9%; growth at 10 µM (RPMI-8226): -29%; growth at 10 µM (NCI-H522): -51%; growth at 10 µM [11]: -54.1%
3 | O=C1/C(=C/c2c(Cl)cccc2Cl)CN(S(=O)(=O)c2ccccc2)C/C1=C\c1c(Cl)cccc1Cl | 62% | 81.6% | 85% | 78.6% | 93% | 52.7% | 66.3% | 71.2% | 103% | 54.5% | 103% | 88.8% | 73.7% | 67.3% | 74% | 136% | 71.5% | 72.7% | 48.5% | 100% | growth at 10 µM (TK-10): 101%; growth at 10 µM (PC-3): 57.5%; growth at 10 µM (CCRF-CEM): 42.4%; growth at 10 µM (MDA-MB-468): 80.4%; growth at 10 µM (ACHN): 76.3%; growth at 10 µM (A498): 91.6%; growth at 10 µM (K562): 77.8%; growth at 10 µM (SN12C): 86.3%; growth at 10 µM [7]: 95.3%; growth at 10 µM (SK-MEL-5): 85.3%; growth at 10 µM [8]: 60.5%; growth at 10 µM (NCI-H23): 82.6%; growth at 10 µM [9]: 77.3%; growth at 10 µM [10]: 93%; growth at 10 µM (RPMI-8226): 63.3%; growth at 10 µM (NCI-H522): 72.5%; growth at 10 µM [11]: 99.9%
4 | Cc1ccc(S(=O)(=O)N2C/C(=C\c3cc(F)cc(F)c3)C(=O)/C(=C/c3cc(F)cc(F)c3)C2)cc1 | -35% | 7.23% | 25% | -43% | -87% | -21% | -68% | -53% | -65% | -51% | -89% | -20% | -92% | 7% | -53% | -25% | -78% | -76.6% | -75.4% | -60% | growth at 10 µM (TK-10): -58%; growth at 10 µM (PC-3): -60.3%; growth at 10 µM (CCRF-CEM): -23%; growth at 10 µM (MDA-MB-468): -73%; growth at 10 µM (ACHN): -91.4%; growth at 10 µM (A498): -59%; growth at 10 µM (K562): -19%; growth at 10 µM (SN12C): -86%; growth at 10 µM [7]: -88%; growth at 10 µM (SK-MEL-5): -92%; growth at 10 µM [8]: -96%; growth at 10 µM (NCI-H23): -33%; growth at 10 µM [9]: -44%; growth at 10 µM [10]: 8%; growth at 10 µM (RPMI-8226): -36%; growth at 10 µM (NCI-H522): -84%; growth at 10 µM [11]: -72%
